ChEMBL document CHEMBL1201862, “PubChem BioAssay data set” (2004)
Active and inactive are the calls of the source.

What was measured:
[1] = molecular target: Cytochrome P450 2D6 (Homo sapiens, UniProt P10635); test: qHTS Assay for Inhibitors and Substrates of Cytochrome P450 2D6. [Related pubchem assays: 410 ]; assay type: ADME; conditions: read-out: Potency
[2] = tested on: INS1; test: beta cell apoptosis inhibitors, cytokine rescue, dose response, luminescence, retest (AID 449756); assay type: functional, cell-based; conditions: Rattus norvegicus;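 also: cell death triggered by IL-1 beta plus TNF-alpha plus IFN-gamma mixture; protective hits raise ATP signal compared with cytokine alone wells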
[3] = molecular target: T1, Serine/threonine-protein phosphatase (Homo sapiens, UniProt Q9BPW0); test: Counterscreen for inhibitors of PP1: fluorescence-based biochemical high throughput dose response assay to identify inhibitors of Protein Phosphatase 5 (PP5). [Related pubchem assays: 2034 (Summary (PP5 inhibitors)), 1987 (PP5 inhibitors in singlate), 2235 (PP1 inhibitors in singlate)]
T1 sequence (Q9BPW0 whole entry): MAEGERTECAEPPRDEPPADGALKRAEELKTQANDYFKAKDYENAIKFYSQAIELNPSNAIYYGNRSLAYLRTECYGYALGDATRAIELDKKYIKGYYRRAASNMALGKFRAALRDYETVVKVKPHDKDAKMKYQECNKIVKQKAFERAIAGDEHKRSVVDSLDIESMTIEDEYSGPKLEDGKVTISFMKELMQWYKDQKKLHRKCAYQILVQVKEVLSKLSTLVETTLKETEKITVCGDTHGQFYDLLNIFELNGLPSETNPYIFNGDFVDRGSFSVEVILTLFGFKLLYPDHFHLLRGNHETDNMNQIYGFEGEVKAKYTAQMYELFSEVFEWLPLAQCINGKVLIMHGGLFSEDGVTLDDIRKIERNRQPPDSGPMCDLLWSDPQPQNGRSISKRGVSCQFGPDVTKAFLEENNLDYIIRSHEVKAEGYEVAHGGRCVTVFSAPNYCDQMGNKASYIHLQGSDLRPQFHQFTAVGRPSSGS

[4] = molecular target: Serine/threonine-protein phosphatase PP1-alpha catalytic subunit (Homo sapiens, UniProt P62136); test: PP1 phosphatase inhibitors, dose response, biochemical, fluorescence (AID 2403);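 also: phosphatase turnover of OMFP into fluorescent 3-O-methylfluorescein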
[5] = molecular target: Paired box protein Pax-8 (Homo sapiens, UniProt Q06710); test: inhibitors of PAX8-driven TPO luciferase reporter, dose response, RMG-I cells, cherry-pick (AID 687027); assay type: functional, cell-based;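 also: luciferase reporter driven by Pax8 target thyroperoxidase promoter measured by SteadyGlo luminescence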
[6] = Shn3 3'UTR reporter inhibitors, dose response, cell-based, Clone20 osteoblasts, firefly luciferase, cherry-picked (AID 624132); assay type: functional;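 also: firefly luciferase luminescence from reporter carrying the Shn3 3'UTR in osteoblasts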
[7] = molecular target: Scavenger receptor class B member 1 (Mus musculus, UniProt Q61009); test: inhibitors of SR-BI mediated HDL lipid uptake, dose response, ldlA[mSR-BI] cells, fluorescence, cherry pick (AID 493194); assay type: functional, cell-based;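 also: cellular uptake of fluorescent DiI-labeled HDL measured as cell fluorescence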
[8] = HepG2 cell cytotoxicity, dose response, cytotoxicity control for Shn3 inhibitor project, CellTiter-Glo, cherry-picked (AID 624134); assay type: functional, cell-based
[9] = insulin promoter down-regulators in MIN6 cells, imaging, high-content screening, mouse beta cells (AID 1628); assay type: functional
[10] = cytotoxicity in MIN6 insulinoma cells, dose response, cytotoxicity control, cell-based, mouse insulinoma (AID 2122); assay type: functional;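 also: confirmatory high-throughput counterscreen run to flag cytotoxic compounds; mouse MIN-6 beta cells carrying an insulin promoter eGFP reporter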
[11] = Counterscreen for IDE inhibitors: Luminescence-based cell-based high throughput dose response assay to identify compounds that are cytotoxic to HEK cells. [Related pubchem assays: 434962 (Primary screen (IDE inhibitors in singlicate)), 449730 (Counterscreen (Cytotoxicity in triplicate)), 435028 (Confirmation (IDE inhibitors in triplicate)) …; assay type: functional; conditions: HEK293
[12] = molecular target: T2, Insulin-degrading enzyme (Homo sapiens, UniProt P14735); test: Dose Response: Fluorescence polarization-based cell-based high throughput dose response assay for inhibitors of insulin-degrading enzyme (IDE). [Related pubchem assays: 434962 (Primary screen (IDE inhibitors in singlicate)), 449730 (Counterscreen (Cytotoxicity in triplicate)), 435028 (Confirmation (IDE inhibitors in triplicate)), 434984 (Summary …; assay type: functional
T2 sequence (P14735 whole entry): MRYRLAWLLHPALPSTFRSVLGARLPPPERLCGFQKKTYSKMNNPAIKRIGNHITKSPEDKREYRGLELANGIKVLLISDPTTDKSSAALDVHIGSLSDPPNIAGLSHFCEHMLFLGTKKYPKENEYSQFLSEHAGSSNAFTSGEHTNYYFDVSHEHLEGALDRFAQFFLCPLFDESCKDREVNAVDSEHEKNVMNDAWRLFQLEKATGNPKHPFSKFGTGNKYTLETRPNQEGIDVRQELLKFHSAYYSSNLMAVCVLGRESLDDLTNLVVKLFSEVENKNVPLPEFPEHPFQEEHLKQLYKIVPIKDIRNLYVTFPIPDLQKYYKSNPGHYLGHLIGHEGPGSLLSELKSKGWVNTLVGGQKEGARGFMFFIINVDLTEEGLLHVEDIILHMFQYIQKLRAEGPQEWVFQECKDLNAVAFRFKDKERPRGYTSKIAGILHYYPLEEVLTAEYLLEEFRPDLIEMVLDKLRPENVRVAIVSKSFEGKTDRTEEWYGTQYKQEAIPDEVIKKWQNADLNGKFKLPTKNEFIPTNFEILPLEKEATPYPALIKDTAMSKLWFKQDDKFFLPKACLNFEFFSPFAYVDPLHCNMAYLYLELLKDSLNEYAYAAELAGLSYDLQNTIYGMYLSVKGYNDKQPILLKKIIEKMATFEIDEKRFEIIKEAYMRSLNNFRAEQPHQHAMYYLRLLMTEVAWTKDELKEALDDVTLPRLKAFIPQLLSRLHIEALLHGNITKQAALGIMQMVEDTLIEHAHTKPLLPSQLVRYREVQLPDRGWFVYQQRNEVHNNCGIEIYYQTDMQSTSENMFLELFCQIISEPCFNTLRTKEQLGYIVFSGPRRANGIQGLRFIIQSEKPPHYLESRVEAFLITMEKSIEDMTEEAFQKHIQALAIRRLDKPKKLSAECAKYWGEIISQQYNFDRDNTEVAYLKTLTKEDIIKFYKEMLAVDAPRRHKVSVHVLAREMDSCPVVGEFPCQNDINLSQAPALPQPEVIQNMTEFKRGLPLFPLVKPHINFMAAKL

[13] = molecular target: Aspartyl aminopeptidase (Plasmodium falciparum 3D7, UniProt Q8I2J3)
[14] = molecular target: Procathepsin L (Homo sapiens, UniProt P07711)
[15] = molecular target: C-C chemokine receptor type 6 (Homo sapiens, UniProt P51684); test: CCR6 receptor antagonists, dose response, cell-based, luminescent beta-arrestin readout (AID 504728); assay type: functional
[16] = molecular target: Beta-galactosidase (Escherichia coli, UniProt Q8VNN2); test: beta-galactosidase enzyme inhibitors and activators, dose response, artefact control for CCR6 antagonist project, biochemical, E. coli enzyme, set 3 (AID 504712); assay type: functional
[17] = molecular target: Cytochrome P450 2C9 (Homo sapiens, UniProt P11712); conditions: Potency
[18] = molecular target: Aminopeptidase N (Plasmodium falciparum FcB1/Columbia, UniProt O96935); test: P. falciparum M1AAP inhibitors, biochemical, fluorogenic H-Leu-NHMec substrate, 1536-well (AID 1445); design: species or system Plasmodium falciparum 3D7, 3D7

Cytochrome P450 2D6, sequence (P10635 whole entry): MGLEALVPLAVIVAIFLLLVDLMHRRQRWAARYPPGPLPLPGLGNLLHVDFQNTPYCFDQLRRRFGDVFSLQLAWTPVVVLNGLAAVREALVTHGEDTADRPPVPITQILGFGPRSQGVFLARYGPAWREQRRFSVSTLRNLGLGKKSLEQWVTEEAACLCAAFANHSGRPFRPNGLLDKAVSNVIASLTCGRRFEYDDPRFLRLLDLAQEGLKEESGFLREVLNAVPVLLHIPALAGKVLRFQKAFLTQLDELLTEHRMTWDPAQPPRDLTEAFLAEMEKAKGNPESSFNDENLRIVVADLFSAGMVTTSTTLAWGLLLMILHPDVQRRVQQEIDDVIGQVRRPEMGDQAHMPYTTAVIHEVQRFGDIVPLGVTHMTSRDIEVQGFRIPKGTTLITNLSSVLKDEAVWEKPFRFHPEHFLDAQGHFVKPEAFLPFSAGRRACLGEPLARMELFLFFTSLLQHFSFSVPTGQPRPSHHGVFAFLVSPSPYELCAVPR
Scavenger receptor class B member 1, sequence (Q61009 whole entry): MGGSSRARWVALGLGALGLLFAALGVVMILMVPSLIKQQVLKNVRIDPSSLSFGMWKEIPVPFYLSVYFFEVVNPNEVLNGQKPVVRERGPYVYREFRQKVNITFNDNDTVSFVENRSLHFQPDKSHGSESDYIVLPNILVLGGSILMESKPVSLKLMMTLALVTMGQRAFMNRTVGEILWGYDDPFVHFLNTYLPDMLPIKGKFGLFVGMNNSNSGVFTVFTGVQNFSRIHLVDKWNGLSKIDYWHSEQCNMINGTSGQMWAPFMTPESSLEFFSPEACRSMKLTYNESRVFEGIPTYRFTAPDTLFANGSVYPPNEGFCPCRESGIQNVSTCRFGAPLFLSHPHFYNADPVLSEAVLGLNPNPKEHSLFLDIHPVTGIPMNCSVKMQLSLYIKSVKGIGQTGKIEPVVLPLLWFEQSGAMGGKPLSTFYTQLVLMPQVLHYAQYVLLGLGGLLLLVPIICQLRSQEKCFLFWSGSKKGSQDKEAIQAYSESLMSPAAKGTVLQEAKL
Beta-galactosidase, sequence (Q8VNN2 whole entry): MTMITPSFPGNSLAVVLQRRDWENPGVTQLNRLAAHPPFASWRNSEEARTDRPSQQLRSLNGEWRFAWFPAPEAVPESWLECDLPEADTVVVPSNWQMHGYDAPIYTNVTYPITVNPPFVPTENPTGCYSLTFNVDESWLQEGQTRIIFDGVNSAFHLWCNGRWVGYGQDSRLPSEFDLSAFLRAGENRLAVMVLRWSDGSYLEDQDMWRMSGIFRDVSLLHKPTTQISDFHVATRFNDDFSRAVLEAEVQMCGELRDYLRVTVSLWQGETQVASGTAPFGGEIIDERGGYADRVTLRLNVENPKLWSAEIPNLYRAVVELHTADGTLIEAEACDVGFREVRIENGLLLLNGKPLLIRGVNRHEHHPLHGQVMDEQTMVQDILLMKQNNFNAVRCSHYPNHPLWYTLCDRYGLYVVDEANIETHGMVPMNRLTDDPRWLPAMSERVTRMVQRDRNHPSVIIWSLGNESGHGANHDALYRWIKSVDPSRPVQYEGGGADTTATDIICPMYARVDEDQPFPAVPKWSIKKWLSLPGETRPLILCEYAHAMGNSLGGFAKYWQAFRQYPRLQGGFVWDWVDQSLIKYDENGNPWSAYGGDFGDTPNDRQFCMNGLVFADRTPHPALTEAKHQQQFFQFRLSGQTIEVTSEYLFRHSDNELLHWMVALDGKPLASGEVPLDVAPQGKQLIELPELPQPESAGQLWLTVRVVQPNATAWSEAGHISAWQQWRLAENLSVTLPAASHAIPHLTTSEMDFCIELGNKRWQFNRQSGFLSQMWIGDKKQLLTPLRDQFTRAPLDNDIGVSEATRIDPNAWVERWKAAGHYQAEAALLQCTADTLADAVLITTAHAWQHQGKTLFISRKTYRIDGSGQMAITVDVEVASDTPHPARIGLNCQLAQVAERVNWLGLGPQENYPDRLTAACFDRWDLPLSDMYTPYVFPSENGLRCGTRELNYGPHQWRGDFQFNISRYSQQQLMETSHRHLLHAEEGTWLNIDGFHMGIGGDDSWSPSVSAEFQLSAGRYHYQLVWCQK
Cytochrome P450 2C9, sequence (P11712 whole entry): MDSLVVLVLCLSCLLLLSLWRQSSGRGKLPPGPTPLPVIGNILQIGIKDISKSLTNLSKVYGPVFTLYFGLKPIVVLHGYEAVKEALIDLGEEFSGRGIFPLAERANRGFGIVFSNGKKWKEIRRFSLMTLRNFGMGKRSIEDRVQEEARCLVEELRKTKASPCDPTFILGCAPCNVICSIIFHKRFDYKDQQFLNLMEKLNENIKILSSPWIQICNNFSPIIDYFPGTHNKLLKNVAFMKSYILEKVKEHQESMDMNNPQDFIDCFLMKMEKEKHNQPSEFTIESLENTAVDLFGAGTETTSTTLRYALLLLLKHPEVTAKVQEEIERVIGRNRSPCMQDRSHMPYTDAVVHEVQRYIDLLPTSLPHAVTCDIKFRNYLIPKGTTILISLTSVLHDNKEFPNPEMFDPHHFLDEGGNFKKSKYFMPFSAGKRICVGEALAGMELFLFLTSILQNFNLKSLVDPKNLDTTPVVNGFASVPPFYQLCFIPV
Procathepsin L, sequence (P07711 whole entry): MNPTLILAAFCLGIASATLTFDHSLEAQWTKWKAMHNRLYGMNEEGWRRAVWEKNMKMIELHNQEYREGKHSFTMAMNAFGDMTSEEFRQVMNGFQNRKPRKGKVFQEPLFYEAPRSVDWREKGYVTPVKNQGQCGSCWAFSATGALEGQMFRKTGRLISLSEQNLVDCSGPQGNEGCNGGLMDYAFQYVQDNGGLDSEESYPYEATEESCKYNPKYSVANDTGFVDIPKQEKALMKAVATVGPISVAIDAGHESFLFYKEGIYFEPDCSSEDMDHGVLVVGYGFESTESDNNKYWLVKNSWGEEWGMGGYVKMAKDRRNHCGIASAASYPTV
Paired box protein Pax-8, sequence (Q06710 whole entry): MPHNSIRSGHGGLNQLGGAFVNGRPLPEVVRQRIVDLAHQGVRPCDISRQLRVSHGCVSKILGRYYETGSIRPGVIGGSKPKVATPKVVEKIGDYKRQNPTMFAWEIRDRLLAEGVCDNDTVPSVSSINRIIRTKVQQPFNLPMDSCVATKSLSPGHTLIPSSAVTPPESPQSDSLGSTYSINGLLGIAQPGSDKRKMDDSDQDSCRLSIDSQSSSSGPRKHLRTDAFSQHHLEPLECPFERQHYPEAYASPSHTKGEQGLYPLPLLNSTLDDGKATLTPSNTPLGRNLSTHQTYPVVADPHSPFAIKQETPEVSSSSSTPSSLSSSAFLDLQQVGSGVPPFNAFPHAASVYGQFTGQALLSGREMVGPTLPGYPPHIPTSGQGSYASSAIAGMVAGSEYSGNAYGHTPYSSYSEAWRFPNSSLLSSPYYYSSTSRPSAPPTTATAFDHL
Aspartyl aminopeptidase, sequence (Q8I2J3 whole entry): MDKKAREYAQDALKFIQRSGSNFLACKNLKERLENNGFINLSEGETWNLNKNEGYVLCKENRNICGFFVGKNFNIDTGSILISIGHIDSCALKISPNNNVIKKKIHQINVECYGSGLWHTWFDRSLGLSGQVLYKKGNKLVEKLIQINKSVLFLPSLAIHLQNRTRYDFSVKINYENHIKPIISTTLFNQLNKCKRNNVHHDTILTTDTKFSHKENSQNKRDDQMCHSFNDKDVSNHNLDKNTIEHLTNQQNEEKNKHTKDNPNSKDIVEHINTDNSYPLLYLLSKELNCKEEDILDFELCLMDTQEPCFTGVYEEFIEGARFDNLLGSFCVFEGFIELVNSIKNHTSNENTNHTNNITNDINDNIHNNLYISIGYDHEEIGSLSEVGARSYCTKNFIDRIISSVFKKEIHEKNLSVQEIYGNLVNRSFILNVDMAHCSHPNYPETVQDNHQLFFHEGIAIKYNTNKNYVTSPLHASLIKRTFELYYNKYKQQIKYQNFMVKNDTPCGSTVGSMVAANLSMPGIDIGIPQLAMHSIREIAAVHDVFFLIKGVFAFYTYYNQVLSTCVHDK
C-C chemokine receptor type 6, sequence (P51684 whole entry): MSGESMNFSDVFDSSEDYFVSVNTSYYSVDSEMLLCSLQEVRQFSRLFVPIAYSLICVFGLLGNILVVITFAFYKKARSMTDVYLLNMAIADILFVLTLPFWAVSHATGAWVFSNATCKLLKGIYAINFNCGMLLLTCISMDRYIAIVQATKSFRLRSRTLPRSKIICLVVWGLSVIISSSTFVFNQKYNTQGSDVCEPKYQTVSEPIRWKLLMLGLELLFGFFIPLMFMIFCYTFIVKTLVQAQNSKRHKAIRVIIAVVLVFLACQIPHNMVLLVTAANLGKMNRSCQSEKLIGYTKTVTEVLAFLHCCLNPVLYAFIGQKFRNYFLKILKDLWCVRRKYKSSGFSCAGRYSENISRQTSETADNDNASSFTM
Serine/threonine-protein phosphatase PP1-alpha catalytic subunit, sequence (P62136 whole entry): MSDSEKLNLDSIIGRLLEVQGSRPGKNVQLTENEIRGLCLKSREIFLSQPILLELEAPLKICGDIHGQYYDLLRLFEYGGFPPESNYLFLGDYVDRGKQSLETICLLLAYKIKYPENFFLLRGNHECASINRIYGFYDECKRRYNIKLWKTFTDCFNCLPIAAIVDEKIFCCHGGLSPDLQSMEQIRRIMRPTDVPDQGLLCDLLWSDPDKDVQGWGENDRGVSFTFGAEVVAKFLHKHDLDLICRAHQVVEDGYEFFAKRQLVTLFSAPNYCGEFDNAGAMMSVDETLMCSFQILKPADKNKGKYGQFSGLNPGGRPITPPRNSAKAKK

Question: Which AC50 [1] does the source give for CC(=O)OCC1OC(C#Cc2ccc(F)cc2F)C=CC1OC(C)=O (stereo not given) here?
Answer: 6.31 µM (inconclusive)

Question: Which results are given for COc1cnc(-c2ccccn2)nc1Sc1ccc(C)cc1?
Answer: AC50 [2]: 5.03 µM (active); IC50 [3]: > 67 µM (not active); IC50 [4]: 6.95 µM (active)

Question: What does the source list for O=C(Nc1ccc(Cl)cc1)Nc1ccc(N2CCCC2)c(S(=O)(=O)Nc2ccccc2Cl)c1?
Answer: AC50 [5]: 5.13 µM (active); AC50 [6]: 5.2 µM (active); AC50 [7]: 23.5 µM (active); AC50 [8]: 7.06 µM (active); AC50 [2]: 6.99 µM (active); IC50 [9]: 4.47 µM (active); IC50 [10]: > 16 µM (inactive)

Question: Which results are given for Cc1c(OC(C)C(=O)NCc2ccncc2)ccc2c3c(c(=O)oc12)CCCC3 (stereo not given)?
Answer: IC50 [11]: 15.5 µM (not active); IC50 [12]: > 55.9 µM (not active)

Question: With CC1=C([N+](=O)[O-])C(c2ccc(O)c(O)c2)NC(=O)N1 (stereo not given) as the compound, how does the IC50 [13] read?
Answer: 0.864 µM (active)

Question: What about the IC50 [14] of the same compound?
Answer: > 59.6 µM (not active)

Question: Which results are given for C/C(CCC12CC3CC(CC(C3)C1)C2)=N\NC(N)=S?
Answer: IC50 [15]: 50.4 µM (inactive); IC50 [16]: > 66.6 µM (inactive)

Question: Which AC50 [1] does the source give for COc1ccc2c(c1OC)C(=O)O[C@@H]2[C@H]1c2cc3c(cc2CCN1C)OCO3 [HYDRASTINE] here?
Answer: 39.8 µM (inconclusive)

Question: What about the AC50 [17] of the same compound?
Answer: 25.1 µM (inconclusive)

Question: Which IC50 [18] does the source give for C[C@H](CCC(=O)O)[C@H]1CC[C@H]2[C@@H]3[C@@H](O)C[C@@H]4C[C@H](O)CC[C@]4(C)[C@H]3CC[C@]12C [URSODIOL] here?
Answer: 2.6 µM (active)
